Laboratory results from patent publication US9375436B2, “Androgen treatment in females” (priority 2004, dated 2016).
“And” between values parts separate entries of the source, which are not always exact repeats. Equal entries are not always repeated.

What was measured:
Format in all cases: in vivo, human
[1] = system: women waiting to go into an IVF cycle; assay: Spontaneous conceptions in women on DHEA waiting to go into IVF
Protocol: Additionally, with DHEA treatment, there may be an unexpectedly large number of spontaneous conceptions in women waiting to go into an IVF cycle. DHEA treatment includes administering a dose of between about 50 mg/day and about 100 mg/day, preferably between about 60 mg/day and about 80 mg/day, and in one study about 75 mg/day to a human. Particularly, the DHEA treatment may be administered to a premenopausal person with diminished ovarian function. DHEA may have an effect after about 4 consecutive weeks. However, DHEA has a more significant effect after about 8 weeks or about 2 months of administration, but its effect may continue to increase to about four months, and further may continue past four months of use. Specifically, DHEA treatment has a statistically significant effect after about at least 16 weeks or about at least 4 months of administration.
The DHEA treatment may be at least about 2 weeks before spontaneous conception occurs. In the population of women who are waiting to go into IVF, the spontaneous pregnancy rate is a fraction of about 1% per month. However, in the population of women who have been on DHEA treatment, there were 13 spontaneous pregnancies out of 60 women. As such, DHEA treatment increases spontaneous pregnancies in one study at least about 21 fold. […]

[2] = system: women with DOR; assay: Matched case control study of embryo aneuploidy by preimplantation genetic screening (Example 11)
Protocol: In a 1:2, matched case control study, 22 consecutive women with DOR, supplemented with DHEA, underwent preimplantation genetic screening (PGS) of embryos during in vitro fertilization (IVF) cycles. Each was matched by patient age and time period of IVF with two control IVF cycles without DHEA supplementation (n=44). PGS was performed for chromosomes X, Y, 13, 16, 18, 21 and 22, and involved determination of numbers and percentages of aneuploid embryos.
We retrieved from our center's computerized research data bank a total of 22 consecutive DOR patients who underwent IVF/PGS while on DHEA supplementation. Only first IVF cycles were analyzed. These cycles were matched with the two control cycles not on DHEA supplementation, based on patient age and year of treatment (44 controls).
Normal age-specific hormone levels were defined by 95% confidence intervals at all ages, as previously reported. Since patients with DOR were, thus, uniformly diagnosed before IVF cycle protocols were determined, they were all supplemented with DHEA, and stimulation adjustments were made.
During the study period all DOR patients at our center routinely received DHEA supplementation. Those not receiving DHEA, therefore, by definition, had age-appropriate ovarian reserve, confirmed by normal anti-Müllerian hormone (AMH), follicle stimulating hormone (FSH) baseline levels and estradiol. Patients receiving DHEA supplementation were prescribed 25 mg of micronized, pharmaceutical grade DHEA, T.I.D, for at least four weeks prior to IVF cycle start. Short-term supplementation was defined as 4 to 12 weeks of DHEA prior to IVF and PGS; supplementation beyond that was considered long-term supplementation.
Patients with premature DOR, or if over 40 years of age, in first treatment cycles universally receive a so-called microdose gonadotropin releasing hormone agonist (GnRH-a) ovarian stimulation protocol, characterized by leuprolide acetate (50 μg/0.1 mL, b.i.d.; Lupron®, Abbot Pharmaceuticals, North Chicago, Ill.) and ovarian stimulation with follicle stimulating hormone (FSH, 300 IU-450 IU daily) and human menopausal gonadotropins (hMG, 150 IU). If under age 40 with normal ovarian reserve patients receive down regulation with full dose GnRH-a (1.0 mg/0.1 mL) and ovarian stimulation with up to 300 IU of gonadotropins, usually half as FSH and half as hMG. Higher luteinizing hormone (LH) contributions to ovarian stimulation, if anything, reduce embryo aneuploidy. The small difference in ovarian stimulation protocols between women with DOR and controls, therefore, potentially biases study outcome towards lower aneuploidy rates in the control population, which received a proportionally higher LH contributions to ovarian stimulation.
PGS was performed, utilizing fluorescence in situ hybridization (FISH) in routine fashion, utilizing probes for seven chromosomes (X, Y, 13, 16, 18, 21 and 22) on day three after fertilization, when embryos reached six to eight cell stages. This restricted chromosome panel is currently routinely utilized for PGS.
A general linear model was constructed to assess DHEA effects on percent aneuploidy after adjustment for age, indications for PGS, stimulation protocol and total gonadotropin dosage utilized. The latter adjustment was made as a surrogate for potential physician biases in how individual patients were stimulated, and potential effects such stimulation biases may have on ploidy.

[3] = system: patients with evidence of decreased ovarian reserve; assay: IVF cycles before and after DHEA treatment (Example 2)
Protocol: Cumulative embryo score is determined by scoring day 3 embryos and multiplying the number of cells in the embryo by the embryo grade. Embryo grade is a judgment of the embryologist on embryo quality from 1 to 5. Most good embryos are scored 4, with 5 reserved for exceptional embryos. The grade is based on the uniformity of the cells, the color and consistency of the cytoplasm, and the amount of fragmentation. Normal embryos are less than 5% fragmented. A person with three eight cell embryos each with a grade of four would have a cumulative embryos score of 96, the product of 3×8×4.
In another study, thirty (30) patients with evidence of decreased ovarian reserve were given supplemental DHEA 25 mg three times a day, for a total of 75 mg per day, for an average of about 4 months before beginning ovulation induction for IVF. Twelve patients contributed data from cycles both pre-DHEA and post-DHEA, eleven patients contributed data from cycles only pre-DHEA, and seven patients contributed data from cycles only post-DHEA. Patients' response to ovulation induction before DHEA treatment was compared to patients' response to ovulation induction after DHEA treatment with regard to peak estradiol, oocyte production, and embryos transferred and embryo quality.

[4] = DHEA patients n=22, PGS by FISH, seven chromosomes
[5] = Post DHEA, 19 cycles, 16.1 ± 2.4 weeks of DHEA 75 mg per day

C[C@]12CC[C@H](O)CC1=CC[C@@H]1[C@@H]2CC[C@]2(C)C(=O)CC[C@@H]12 [DHEA, Dehydroepiandrosterone]
increase of spontaneous pregnancies ([1]; versus fraction of about 1% per month in women waiting for IVF): at least 21 fold | spontaneous pregnancies out of 60 women ([1]; women on DHEA treatment): 13 | Embryo Grades (mean ± SD) ([2]; DHEA patients n=22): 3.4±0.4 | Embryos Cryopreserved (n, mean ± SD) ([2]; DHEA patients n=22): 0.7±1.6 | Embryos Transferred (n, mean ± SD) ([2]; DHEA patients n=22): 1.4±0.9 | Embryos Undergoing PGS (n, mean ± SD) ([2]; DHEA patients n=22): 7.3±3.9 | Oocytes retrieved (n, mean ± SD) ([2]; DHEA patients n=22, 25 mg T.I.D. at least four weeks): 9.6±6.2 | aneuploid embryos (absolute number) [2, 4]: 2.8±2.5 | percentages of aneuploidy [2, 4]: 38.2±24.4 | reduction in aneuploidy ([2]; short term supplementation (4-12 weeks), 95% CI -2.871-46.031): 21.6% | patients with continuing pregnancies ([3]; 5 of 45 patients): 11% | patients using DHEA who have conceived ([3]; 7 of 45 patients): 16% | mean increase in the number of fertilized oocytes (paired comparisons) ([3]; 12 patients): 1.42±0.63 | Average Day 3 embryo cell count ([3]; Post DHEA, 19 cycles): 4.5 ± 0.5 | Average Day 3 embryo grade ([3]; Post DHEA, 19 cycles): 2.8 ± 0.3 | Fertilized eggs ([3]; Post DHEA, 19 cycles): 4.6 ± 0.8 | Number of Day 3 embryos ([3]; Post DHEA, 19 cycles): 3.2 ± 0.6 | Oocytes ([3]; Post DHEA, 19 cycles): 5.8 ± 1.0 | Peak Estradiol ([3]; Post DHEA, 19 cycles): 1192 ± 904 | Transferred embryos ([3]; Post DHEA, 19 cycles): 2.6 ± 0.4 | Cancellation [3, 5]: 5% | Cancellation (cycles cancelled / cycles) [3, 5]: 1 of 19 and 1/19 | Positive hCG (per transfer cycle) ([3]; Post DHEA, cycles after an average of 4 months of DHEA treatment): 4/18 | increase in cumulative embryo score ([3]; after versus prior to DHEA use): about 64 | improved overall embryo score, model adjusted for oocyte number ([3]; post versus pre DHEA): 32.8 | increased fertilization, model adjusted for oocyte number ([3]; post versus pre DHEA): 1.93 fertilized oocytes | increased numbers of day-three embryos, model adjusted for oocyte number ([3]; post versus pre DHEA): 1.36 embryos
